Test results: US10729817B2, “Medical device and plasticized nylon” (Medtronic Vascular, Inc., priority 2013, dated 2020)

Tests used:
[1] = Tensile test of pressed films, ASTM D638, INSTRON; assay type: physicochemical; conditions: for Tensile elastic modulus / Elongation / Tensile Modulus / Tensile Strength: 10 wt-% plasticizer in RILSAN Nylon-12 film; for Elongation / Tensile Modulus / Tensile Strength: Nylon-12 unplasticized
Experimental: (§1) Samples of 5, 10, and 15 wt-% of plasticizer from Example 1 were compounded with Nylon-12 in a Brabender mixer at 210° C. Sheets (30-mils thick) were pressed at 200° C. Tensile specimens were punched and tested on an INSTRON testing machine at a cross-head speed of 2 inches/minute according to ASTM D638 test Method. The flexural properties were tested according to ASTM D790-97B test method. The average tensile and flexural moduli of plasticized Nylon-12 are shown in FIG. 3 and FIG. 4, respectively.
(§2) A sample of 10 wt-% of plasticizer from each of Examples 15-17 was compounded with RILSAN Nylon-12 as described in Example 2. The melting point (mp) and crystallinity was determined by DSC.
(§3) A sample of 10 wt-% of plasticizer from each of Examples 4-5 and 19-20 was compounded with RILSAN Nylon-12 as described in Example 2. The melting point (mp) and crystallinity was determined by DSC.
A sample of 5-10 wt-% in RILSAN Nylon-12 was compounded with 5-10 wt-% plasticizer from Example 8 under similar conditions as in Example 9. Sheets (30-mils thick) were pressed at 200° C. from pellets. Tensile specimens were punched and tested on an INSTRON testing machine at a cross-head speed of 2 inches/minute according to ASTM D638 test Method.

[2] = Flexural properties of pressed films, ASTM D790-97B; assay type: physicochemical; conditions: for Flexural elastic modulus: 10 wt-% plasticizer in RILSAN Nylon-12 film
Experimental: as §1

[3] = Thermal properties of plasticized Nylon-12 by DSC; assay type: physicochemical; conditions: for Crystallinity / mp: 10 wt-% plasticizer in RILSAN Nylon-12, Nylon-12 unplasticized
Experimental: as §1, §2, §3

[4] = Thermal properties of plasticized Nylon-12 by DSC; assay type: physicochemical
[5] = 5-10 wt-% plasticizer in RILSAN Nylon-12
[6] = 10 wt-% plasticizer in GRILAMID L25 Nylon-12
[7] = 5, 10, 15 wt-% plasticizer in Nylon-12

Row | SMILES | Crystallinity ([3]; Table 2) | mp ([3]; Table 2) | Elongation ([1]; Table 2) | Tensile Modulus ([1]; Table 2) | Tensile Strength ([1]; Table 2) | Crystallinity ([3]; Table 3) | mp ([3]; Table 3) | Elongation ([1]; Table 3) | Tensile Modulus ([1]; Table 3) | Tensile Strength ([1]; Table 3) | other results
1 | CCCCCCCC(=O)NCCN(CCNC(=O)CCCCCCC)C(=O)CCCCCCC [Example 13, N,N′,N″-trioctanoyl diethylenetriamine] | – | – | – | – | – | – | – | – | – | – | Tensile elastic modulus [1]: 85644 psi; Flexural elastic modulus [2]: 71839 psi; melting point: 97.9 °C
2 | CCCCCCCC(=O)NCCN(CCNC(=O)CCCCCCC)C(=O)CCCCCCC [Example 8, N,N′,N″-trioctanoyl diethylenetriamine] | – | – | – | – | – | – | – | – | – | – | Tensile modulus versus plasticizer content [1, 5]: decreased with increasing plastic content; Tensile strength versus plasticizer content [1, 5]: did not change; Tensile strength of base resin GRILAMID L25 after adding plasticizer [1, 6]: maintained; Tensile elastic modulus ([1]; listed as unpurified material): 82997 psi; Flexural modulus after adding plasticizer [2, 6]: decreased significantly; Flexural elastic modulus ([2]; listed as unpurified material): 72345 psi
3 | CCCCCCCC(=O)NCCN(CCN(CCNC(=O)CCCCCCC)C(=O)CCCCCCC)C(=O)CCCCCCC [Example 18, Triethylenetetramine Octanoic Acid Tetramide] | 26.7 % by DSC | 176.2 °C | 238% | 95902 psi | 9079 psi | – | – | – | – | – | –
4 | CCCCCCCC(=O)NCCN(CCNC(=O)CCCCCCC)C(=O)CCCCCCC [Example 1, N,N′,N″-trioctanoyl diethylenetriamine] | – | – | – | – | – | – | – | – | – | – | % Crystallinity ([3]; 5% plasticizer in Nylon-12): 28.8%; Tm Melt peak ([3]; 5% plasticizer in Nylon-12): 176.6 °C; ΔHm ([3]; 10% plasticizer in Nylon-12): 58.2 J/g; % Crystallinity ([3]; 15% plasticizer in Nylon-12): 26.2%; Tensile modulus of Nylon-12 after adding the plasticizer [1, 7]: decreased; Flexural modulus of Nylon-12 after adding the plasticizer [2, 7]: decreased; ΔHm ([4]; 5% plasticizer in Nylon-12): 60.2 J/g; % Crystallinity ([4]; 10% plasticizer in Nylon-12): 27.8%; Tm Melt peak ([4]; 10% plasticizer in Nylon-12): 175.9 °C; Tm Melt peak ([4]; 15% plasticizer in Nylon-12): 173.9 °C; ΔHm ([4]; 15% plasticizer in Nylon-12): 54.7 J/g

Now from value to compound, other results behind:

Row | Crystallinity ([3]; Table 2) | mp ([3]; Table 2) | Elongation ([1]; Table 2) | Tensile Modulus ([1]; Table 2) | Tensile Strength ([1]; Table 2) | Crystallinity ([3]; Table 3) | mp ([3]; Table 3) | Elongation ([1]; Table 3) | Tensile Modulus ([1]; Table 3) | Tensile Strength ([1]; Table 3) | SMILES | other results
5 | 25.2 % by DSC | 175.5 °C | 263% | 81308 psi | 8871 psi | – | – | – | – | – | CCCCCCCC(=O)NCCCN(CCNC(=O)CCCCCCC)C(=O)CCCCCCC [Example 17, N-(2-aminoethyl)-1,3-propanediamine octanoic acid triamide] | –
6 | – | – | – | – | – | 29.8 % by DSC | 175.2 °C | 231% | 66588 psi | 7422 psi | CCCCCCC(=O)NCCN(CCNC(=O)CCCCCC)C(=O)CCCCCC [Example 4, N,N′,N″-triheptanoyl diethylenetriamine] | –
7 | – | – | – | – | – | 31.0 % by DSC | 175.9 °C | 251% | 83517 psi | 8034 psi | CCCCCCCCCC(=O)NCCN(CCNC(=O)CCCCCCCCC)C(=O)CCCCCCCCC [Example 20, N,N′,N″-tridecanoyl diethylenetriamine] | –
8 | 24.6 % by DSC | 175.6 °C | 258% | 83455 psi | 8637 psi | – | – | – | – | – | CCCCCCC(=O)NCCCN(CCNC(=O)CCCCCC)C(=O)CCCCCC [Example 16, N-(2-aminoethyl)-1,3-propanediamine heptanoic acid triamide] | –
9 | – | – | – | – | – | 29.2 % by DSC | 176.0 °C | 226% | 74935 psi | 7411 psi | CCCCCCCCC(=O)NCCN(CCNC(=O)CCCCCCCC)C(=O)CCCCCCCC [Example 5, N,N′,N″-trinonanoyl diethylenetriamine] | –
